{"source": "patent US7301020B2", "about": "“Macrolide analogs and methods for identifying same” (priority 2003, dated 2007)", "target": "T1, F-actin (Oryctolagus cuniculus, UniProt P68135)", "T1 construct": "F-actin is purified from rabbit skeletal muscle using a standard protocol; Prodan (Acrylodan) fluorophore on Cys374 (in the fluorescence spectra); from tissue; host or cells: rabbit skeletal muscle", "assay": "KabC binding to and severing of Prodan-F-actin (fluorescence spectra, SDS-PAGE of supernatant and pellet)", "assay_type": "biochemical, rabbit", "method": "FIG. 6: Fluorescence emission spectra of 5 μM Prodan-F-actin in the absence (a), and after selected times following the addition of KabC to 5 μM: (b), immediately after the addition of KabC (the emission spectrum is acquired in 30 seconds); (c), 15 min; (d), 39 min; (e), The spectrum of an equivalent concentration of the KabC-Prodan-G-actin complex. Inset: SDS-PAGE Analysis of KabC binding to F-actin. 100 μL of F-actin (10 μM) in […] was treated each with KabC (a: 0; b: 1; c: 4; d: 10 μM) for 30 min and airfuged at 120,000 g for another 30 min. Supernatant (S) and pellet (P) of each sample was run on SDS-PAGE.\nF-actin: F-actin is purified from rabbit skeletal muscle using a standard protocol developed in the PI's laboratory (Marriott et al, 1988). The purity and activity of actin is analyzed using SDS-PAGE, polymerization assays and a motility assay (Heidecker et al, 1995).\nThe fluorescence emission of Prodan-F-actin is also immediately quenched upon adding KabC ([…]). However, a particularly attractive feature of the Prodan-actin probe is that the average energy of the fluorescence emission changes appreciably following the binding of ABPs, macrolides and in the transition of F-actin to G-actin. Careful analysis of the spectrum can yield information on the relative amounts of up to 4 different states in equilibrium (Marriott et al, 1988). This feature is useful to help understand how KabC binds to Prodan-F-actin. The addition of an equimolar amount of KabC to Prodan-F-actin leads to an immediate decrease in the fluorescence quantum yield, which is followed by a far slower red-shift in the average energy of the emission spectrum over time. […] In this experiment, the monomeric actin (supernatant, S) and F-actin (pellet, P) fractions of KabC treated F-actin are separated after a 60-minute incubation by high-speed centrifugation (120,000 g) and quantified by Coumassie staining of the acrylamide gel. […]"}
{"substance": "Kabiramide C [KabC]", "values": [{"measurement": "F-actin severing", "value": "single and slow severing event"}, {"measurement": "actin fraction by SDS-PAGE after centrifugation", "setting": "F-Actin:KabC 10:1 and 5:2", "value": "a significant fraction of the total actin exists as F-actin"}, {"measurement": "depolymerization of F-actin", "setting": "sub-stoichiometric KabC (1/10th)", "value": "not depolymerized"}]}
